We go through 16 compounds from publication PMC3375117 (International Microbiology, 2011).

Values after ≈ are worked out from the molar mass of the structure shown. Read-outs that look alike come from different tables or passages of the source.

Data set [1] relates to amastigotes of L. donovani (LD-1S/MHOM/SD/00-strain 1S). Particulars: cited from earlier work.
Data set [2] deals with Vero cells. Particulars: cited from earlier work.
The subject of data set [3] is Vero cells. In words: Vero cell toxicity. The conditions noted are these: Vero cells versus L. donovani.
Data set [4] concerns Vero cells.
Data set [5] relates to African trypanosomiasis. Particulars: mice; cited from earlier work.
Data set [6] has as its system amastigotes of L. donovani (LD-1S/MHOM/SD/00-strain 1S). As to the kind of experiment: In vitro antiparasitic assay: Leishmania. In kind it is cell-based. Particulars: read-out: typical IC50 response of L. donovani.
For data set [7], the system named is P. falciparum (K1, multidrug-resistant strain). Particulars: cited from earlier work.
Data set [8] relates to Leishmania promastigote and amastigote forms. Particulars: cited from earlier work.
Data set [9] concerns T. cruzi. Particulars: cited from earlier work.
Data set [10] relates to chloroquine-resistant strain (Indocrina W2) of Plasmodium falciparum. Particulars: cited from earlier work.
The test system of data set [11] is recombinant Tulahuen clone C4 of T. cruzi. The conditions noted are these: read-out: IC50 T. cruzi; cited from earlier work.
In data set [12] the test system is human breast cancer cell line MCF-7. Particulars: read-out: IC50 cytotoxic activity MCF-7; cited from earlier work.
[13] abbreviates: read-out: IC50 growth of Leishmania donovani in the amastigote form.
Where [14] appears, read: read-out: cytotoxicity to Vero cells IC50.
Where [15] appears, read: read-out: IC50 P. falciparum K1 strain, in vitro.
Setting [16] is: read-out: IC50 P. falciparum K1, K1, multidrug-resistant strain.

In general, IC50 refers to the midpoint of a concentration-inhibition curve. For `O=C1C=C[C@]23Oc4ccc(O)c5c4[C@](CCC5=O)(Oc4cccc1c42)O3` [Compound 6, preussomerin EG^1], the results for the IC50 in data set [1] (setting [13]) and in data set [2] (setting [14]) were 0.12 µM and 150 µM, respectively. The “therapeutic window: times greater anti-leishmanial activity than cytotoxicity” value (“therapeutic window” for short) in [3] is 12 times.
As to `O=C1CCC2(Oc3cccc4cccc(c34)O2)c2cccc(O)c21` [Compound 1, Palmarumycin CP2], the IC50 in data set [1] (setting [13]) was 3.93 µM; in [2] (setting [14]) it was 162 µM. The “therapeutic window” value in data set [3] came to 41 times.
palmarumycin CP18 [Compound 3]: the “therapeutic window” value in data set [4] was found to be 245 times. Moreover, the IC50 was 0.62 µM in data set [1] (setting [13]) and 152 µM in [2].
Consider `C/C(=C\Cc1c(O)c(Cl)c(C)c(C=O)c1O)CC/C=C(\C)[C@@H]1CC(=O)C(C)(C)O1` [Ascofuranone], for which, in [5], the “therapeutic effects for African trypanosomiasis” value is listed as “good therapeutic effects”.
Consider `C[C@@H]1[C@H](O)[C@@H](C)/C=C/C=C/C=C/C=C/C=C/C=C/C=C/[C@H](O[C@@H]2O[C@H](C)[C@@H](O)[C@H](N)[C@@H]2O)C[C@@H]2O[C@](O)(C[C@@H](O)C[C@@H](O)[C@H](O)CC[C@@H](O)C[C@@H](O)CC(=O)O[C@H]1C)C[C@H](O)[C@H]2C(=O)O` [Amphotericin B], for which, in data set [6], the IC50 was in the range of 0.07 to 0.12 µg/mL (≈ 0.0758 to 0.13 µM).
In the case of `Oc1cccc2c1[C@@H](O)CCC21Oc2cccc3cccc(c23)O1` [Compound 5, CJ-12,371], the results for the IC50 in [1] (setting [13]) and in [2] (setting [14]) were 8.4 µM and 9 µM, respectively. The “therapeutic window” value in data set [3] was 75 times.
Consider `COC1=CC(=O)C(Cl)=C(C)C1=O` [2-chloro-5-methoxy-3-methylcyclohexa-2,5-diene-1,4-dione], for which the IC50 in data set [7] (setting [15]) was 1.84 µM.
For the compound `CC(C)C[C@@H](C(=O)N[C@H]1COC(=O)[C@H](Cc2ccccc2)N(C)C(=O)[C@H](CC(C)C)N(C)C(=O)[C@@H](NC(=O)[C@H](CC(C)C)N(C)C)COC(=O)[C@H](Cc2ccccc2)N(C)C(=O)[C@H](CC(C)C)N(C)C1=O)N(C)C` [IB-01212], the leishmanicidal activity entry in data set [8] is recorded as “low micromolar concentrations”.
Consider `COc1cc2c3c(oc2c(C)c1O)C(=O)C(C)=CC3=O` [xylariaquinone A], for which the IC50 in data set [7] (setting [15]) is 6.68 µM.
`O=C1CCC2(Oc3cccc4cccc(c34)O2)c2c(O)ccc(O)c21` [Compound 2, palmarumycin CP17]: the IC50 in data set [1] (setting [13]) was 1.34 µM; in [2] (setting [14]), 174 µM. For the same compound, the “therapeutic window” value in [3] amounted to 130 times.
As for `CCC[C@H]1C[C@H]2OC(=O)c3c(cc(OC)c(OC)c3O)[C@H]2O1` [Monocerin], the IC50 in [7] (setting [16]) is 0.68 µM.
`COc1cccc2oc3c(Cl)c(O)c([C@H]4CCC[C@@H](C)O4)c(O)c3c(=O)c12` [Chaetoxanthone C]: the “IC50 T. cruzi” value in data set [9] is 1.5 µg/mL (≈ 3.84 µM).
As for `CC[C@@H](O)[C@@H]1C[C@@H]2OC(=O)c3c(cc(OC)c(OC)c3O)[C@@H]2O1` [11-hydroxymonocerin], the IC50 in data set [7] (setting [16]) is 7.7 µM.
For the compound `COc1c(CC(C)O)c2c3c(CC(C)O)c(OC)c(=O)c4c(O)cc5c(c6c(cc(O)c(c1=O)c62)OCO5)c43` (stereo not shown) [Compound 7, cercosporin], the IC50 was 0.46 µM in data set [1] (read-out: IC50 L. donovani), 1.03 µM in data set [10] (read-out: IC50 P. falciparum), 1.08 µM in [11] and 4.68 µM in data set [12].
`CCN(CC)CCCC(C)Nc1ccnc2cc(Cl)ccc12` (stereo not shown) [Chloroquine, reference compound]: in [10] (positive control), the IC50 was 0.08 to 0.1 µM.
palmarumycin CP19 [Compound 4]: in data set [4], the “therapeutic window” value stood at 18 times. Moreover, the IC50 is 11.6 µM in [1] (setting [13]) and 140 µM in [2].
